Reference: patent publication US20020019374A1, “Salicylohydrazide derivatives, processes and intermediates for their preparation, compositions comprising them, and their use” (priority 2000, published 2002)

melting point: 163 to 168 °C
Structure (SMILES): C/C(=N\NC(=O)c1cccc([N+](=O)[O-])c1O)c1ccccc1 [I-1, 3-nitrosalicylic (1-phenylethylidene)hydrazide]
